Data taken from ChEMBL document CHEMBL1201862, “PubChem BioAssay data set” (2004).
Active and inactive are the calls of the source.

Tests used:
Paired box protein Pax-8 = Paired box protein Pax-8 (Homo sapiens, UniProt Q06710); test: inhibitors of PAX8-driven TPO luciferase reporter, dose response, RMG-I cells, cherry-pick (AID 687027); assay type: functional, cell-based;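 also: luciferase reporter driven by Pax8 target thyroperoxidase promoter measured by SteadyGlo luminescence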
[1] = inhibitors of PGC1a acetylation in cells, dose response, cell-based, cherry-picked samples (AID 720514); assay type: functional;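 also: potency may reflect raised or lowered acetylation signal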
[2] = non-specific cell cytotoxicity, dose response, cytotoxicity control for PAX8 inhibitor project, plate reader, dry powder samples (AID 743021); assay type: functional, cell-based
Beta-galactosidase = Beta-galactosidase (Escherichia coli, UniProt Q8VNN2); test: Dose response counterscreen for EBI2 assay utilizing the enzyme, b-galactosidase.; assay type: functional
[3] = molecular target: Oxysterols receptor LXR-beta (Homo sapiens, UniProt P55055); assay type: functional, cell-based;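 also: agonist activity at LXR measured by a cell-based luminescence readout across a dose range, run as a counterscreen for daf-12 agonists; HEK293 cells with Gal4-LXR fusion and GAL4-driven luciferase reporter; potency for activation of Gal4-LXR reporter so compounds are agonists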
HEK293 = test: HEK293T cell cytotoxicity, dose response, cytotoxicity control, ATP luminescence, cherry-pick samples (AID 687005); assay type: functional, cell-based; conditions: Homo sapiens;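 also: cells exposed to compound for 48 hours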
[4] = HEK293 Cytotoxicity Assay Measured in Cell-Based System Using Plate Reader - 7071-01_Inhibitor_Dose_CherryPick_Activity_Set2.; assay type: functional
Vero = Vero cell cytotoxicity, cytotoxicity control for flavivirus capping enzyme inhibitors (AID 588742); assay type: functional; conditions: Chlorocebus sabaeus
[5] = Artemis endonuclease inhibitor potency, dose response, biochemical, fluorescence intensity (AID 720701); assay type: functional;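 also: Artemis endonuclease enzyme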
[6] = NIH-3T3 fibroblast cytotoxicity, dose response, cytotoxicity control, cell-based, fluorescence, Alamar Blue, secondary assay (AID 2327); assay type: functional;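 also: NIH-3T3 mouse fibroblasts cultured with fluconazole at 8 µg/mL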
[7] = C. albicans growth with fluconazole, confirmation, fluorescence, retest (AID 2467); assay type: functional, cell-based
[8] = molecular target: COUP transcription factor 2 (Homo sapiens, UniProt P24468); test: Luminescence-based cell-based high throughput dose response assay to identify inhibitors of COUP-TFII (NR2F2).; assay type: functional;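 also: HEK293 cells transiently cotransfected with COUP-TFII expression vector and reporter; luciferase reporter luminescence driven by COUP-TFII from the pX2-168 reporter plasmid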
INS1 = test: beta cell apoptosis inhibitors, cytokine rescue, dose response, luminescence, retest (AID 449756); assay type: functional, cell-based; conditions: Rattus norvegicus;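 also: cell death triggered by IL-1 beta plus TNF-alpha plus IFN-gamma mixture; protective hits raise ATP signal compared with cytokine alone wells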
Kallikrein-7 = Kallikrein-7 (Homo sapiens, UniProt P49862); test: Fluorescence Intensity-based biochemical primary high throughput dose response assay to identify activators of kallikrein-7 (K7) zymogen.
Chain of Kallikrein-7 (P49862 whole entry): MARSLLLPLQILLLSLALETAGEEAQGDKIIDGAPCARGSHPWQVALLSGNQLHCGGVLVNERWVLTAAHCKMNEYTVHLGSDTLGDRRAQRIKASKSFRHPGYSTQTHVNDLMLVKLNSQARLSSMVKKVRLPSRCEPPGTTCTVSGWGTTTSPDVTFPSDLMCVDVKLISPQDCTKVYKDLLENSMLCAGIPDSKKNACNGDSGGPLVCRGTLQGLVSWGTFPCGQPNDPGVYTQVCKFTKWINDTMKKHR

Chain of Beta-galactosidase (Q8VNN2 whole entry, the tested form may be a part): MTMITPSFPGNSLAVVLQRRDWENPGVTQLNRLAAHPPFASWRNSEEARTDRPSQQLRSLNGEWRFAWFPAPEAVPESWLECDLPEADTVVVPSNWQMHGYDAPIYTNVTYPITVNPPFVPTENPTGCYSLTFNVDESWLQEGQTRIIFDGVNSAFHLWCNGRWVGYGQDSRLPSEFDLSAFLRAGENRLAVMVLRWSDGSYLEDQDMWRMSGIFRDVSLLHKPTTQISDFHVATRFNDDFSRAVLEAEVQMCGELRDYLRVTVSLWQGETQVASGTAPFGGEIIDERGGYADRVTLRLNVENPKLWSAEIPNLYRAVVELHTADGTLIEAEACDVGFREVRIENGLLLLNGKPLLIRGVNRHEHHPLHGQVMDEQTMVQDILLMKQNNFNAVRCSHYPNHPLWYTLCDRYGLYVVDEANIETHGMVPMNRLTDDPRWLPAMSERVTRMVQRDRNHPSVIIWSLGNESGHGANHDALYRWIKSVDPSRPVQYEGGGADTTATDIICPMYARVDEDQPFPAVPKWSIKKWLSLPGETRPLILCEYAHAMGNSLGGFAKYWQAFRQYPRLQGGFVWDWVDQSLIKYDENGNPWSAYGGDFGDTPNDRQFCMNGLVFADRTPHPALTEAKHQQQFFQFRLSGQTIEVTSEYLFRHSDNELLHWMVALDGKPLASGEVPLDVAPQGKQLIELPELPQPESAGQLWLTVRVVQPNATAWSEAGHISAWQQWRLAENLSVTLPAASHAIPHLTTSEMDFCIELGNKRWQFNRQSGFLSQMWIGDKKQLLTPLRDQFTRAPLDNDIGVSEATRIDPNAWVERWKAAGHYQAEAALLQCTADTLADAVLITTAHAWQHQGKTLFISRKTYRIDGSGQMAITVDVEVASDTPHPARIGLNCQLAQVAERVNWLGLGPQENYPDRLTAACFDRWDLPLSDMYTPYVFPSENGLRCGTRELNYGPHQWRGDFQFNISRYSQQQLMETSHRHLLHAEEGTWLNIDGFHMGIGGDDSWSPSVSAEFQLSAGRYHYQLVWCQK
Chain of Oxysterols receptor LXR-beta (P55055 whole entry, the tested form may be a part): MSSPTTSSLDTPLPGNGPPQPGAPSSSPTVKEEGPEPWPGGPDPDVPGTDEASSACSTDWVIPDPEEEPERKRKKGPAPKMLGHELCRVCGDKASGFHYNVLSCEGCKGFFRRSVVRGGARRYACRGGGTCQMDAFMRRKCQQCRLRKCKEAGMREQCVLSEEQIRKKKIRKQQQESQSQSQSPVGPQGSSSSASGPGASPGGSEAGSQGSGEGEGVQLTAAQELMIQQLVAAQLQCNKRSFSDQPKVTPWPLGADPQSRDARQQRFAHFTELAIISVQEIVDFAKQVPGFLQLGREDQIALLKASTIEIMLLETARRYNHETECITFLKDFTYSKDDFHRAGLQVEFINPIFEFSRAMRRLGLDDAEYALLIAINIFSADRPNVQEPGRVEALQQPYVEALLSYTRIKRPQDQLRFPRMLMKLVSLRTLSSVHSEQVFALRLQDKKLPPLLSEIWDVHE
Chain of Paired box protein Pax-8 (Q06710 whole entry): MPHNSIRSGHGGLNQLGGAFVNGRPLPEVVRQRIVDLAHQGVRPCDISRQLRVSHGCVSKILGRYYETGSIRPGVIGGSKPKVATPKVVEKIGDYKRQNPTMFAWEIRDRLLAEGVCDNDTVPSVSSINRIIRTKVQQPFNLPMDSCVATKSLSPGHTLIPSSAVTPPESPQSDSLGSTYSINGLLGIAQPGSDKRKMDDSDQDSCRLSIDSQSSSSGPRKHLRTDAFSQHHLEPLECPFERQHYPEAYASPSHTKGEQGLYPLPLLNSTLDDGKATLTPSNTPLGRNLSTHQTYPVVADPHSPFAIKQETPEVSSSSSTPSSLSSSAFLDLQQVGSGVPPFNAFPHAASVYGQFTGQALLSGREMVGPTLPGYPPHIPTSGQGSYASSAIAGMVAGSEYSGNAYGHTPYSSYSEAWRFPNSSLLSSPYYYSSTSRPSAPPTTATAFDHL
Chain of COUP transcription factor 2 (P24468 whole entry): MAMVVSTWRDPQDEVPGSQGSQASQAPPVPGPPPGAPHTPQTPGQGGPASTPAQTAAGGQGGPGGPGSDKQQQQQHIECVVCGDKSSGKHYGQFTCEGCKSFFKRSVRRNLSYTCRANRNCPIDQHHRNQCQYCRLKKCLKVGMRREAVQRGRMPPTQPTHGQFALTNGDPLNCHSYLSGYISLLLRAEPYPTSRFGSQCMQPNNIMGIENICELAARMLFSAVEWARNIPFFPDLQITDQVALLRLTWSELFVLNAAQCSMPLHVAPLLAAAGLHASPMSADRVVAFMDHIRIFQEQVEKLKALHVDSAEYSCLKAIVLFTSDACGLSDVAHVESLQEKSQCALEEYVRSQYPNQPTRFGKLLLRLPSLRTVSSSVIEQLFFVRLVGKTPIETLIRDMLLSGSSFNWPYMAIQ

O=C(Nc1ccc(C(F)(F)F)cc1)N1C[C@@H]2N[C@H](C1)[C@@H]2c1ccc(-c2ccccc2)cc1
AC50 (Paired box protein Pax-8): 8.62 µM (active)
AC50 [1]: 9.06 µM (active)
AC50 [2]: 33.8 µM (active)

COc1ccc(OCC(=O)N2CCN(C/C=C/c3ccccc3)CC2)cc1
IC50 (Beta-galactosidase): > 80 µM (inactive)

OC(c1ccccc1)c1nc(-c2cnc3ccccc3c2)cs1 (stereo not given)
EC50 [3]: > 67.6 µM (inactive)

Cc1ccc(S(=O)(=O)N(C)C[C@@H]2Oc3ccc(NS(=O)(=O)c4ccc(Cl)cc4)cc3CC(=O)N([C@@H](C)CO)C[C@@H]2C)cc1
AC50 (HEK293): 28 µM (active)
AC50 [4]: 28 µM (active)

Cc1n[nH]c(O)c1C(c1c(C)n[nH]c1O)c1cn(Cc2cccc3ccccc23)c2ccccc12
CC50 (Vero): > 40 µM (active)
IC50 [5]: 12.5 µM (active)

CC/N=c1\scc(-c2ccc3c(c2)NC(=O)CO3)n1N=C1CCCC1
EC50 [6]: > 160 µM (inactive)
EC50 [7]: 2.31 µM (active)
IC50 [8]: 8.75 µM (active)

Cc1cc(OCC(=O)N(C)Cc2ccccc2)ccc1Cl
AC50 (INS1): > 260 µM (inactive)
IC50 (Beta-galactosidase): > 80 µM (inactive)

CSc1ccc(C2NC(=O)c3ccccc3N2)cc1 (stereo not given)
EC50 (Kallikrein-7): > 69.5 µM (inactive)
